This note sets out measurements from paper PMC7177633, “Effective Cellular Transport of Ortho-Halogenated Sulfonamide Derivatives of Metformin Is Related to Improved Antiproliferative Activity and Apoptosis Induction in MCF-7 Cells” (International Journal of Molecular Sciences, 2020).

As a reminder, the IC50 is the point on the concentration scale where inhibition reaches its midpoint. By viability is commonly meant a per cent measure of how many cells are alive, often set against a control.

One experiment relates to MCF-7 cells. As to the kind of experiment: Intracellular GSH and GSSG, MCF-7. In kind it is cell-based, human. The protocol:
The quantitative determination of glutathione and glutathione disulfide was performed using the enzymatic recycling method according to the protocol of Rahman. The cells were seeded at a density of 2 × 10^5 per well in a 6-well plate and cultured for 48 h. Then, the cells were treated with tested compounds 1, 4 and 7 at their respective ¼ and ½ IC50 values for MCF-7 and MDA-MB-231 cells. Additionally, controls with pure medium, AAPH (2,2′-Azobis(2-methylpropionamidine) dihydro-chloride, Sigma Aldrich, St. Louis, MO, USA) and ascorbic acid (Polish Chemical Reagents, Poland) were performed. The cells were incubated with compounds for another 24 h, then washed twice with 2 mL of cold, Ca^2+-/Mg^2+-free PBS (Biomed Lublin, Lublin, Poland). The cells were harvested using 1-mL accutase (Sigma Aldrich, St. Louis, MO, USA), and the wells were washed with 1 mL of cold growth medium. The cells were transferred to prechilled 2.0-mL Eppendorf tubes and centrifuged at 1000× g for 5 min at 4 °C. The supernatant was discarded, the pellets were resuspended in 1 mL of cold PBS, the number of cells was determined in each sample and the cellular suspension was centrifuged again. PBS was discarded, and the pellets were stored covered with 30-µL PBS at –70 °C. The following day, the cells were suspended in 0.5 mL of ice-cold extraction buffer (0.1% Triton-X (Polish Chemical Reagents, Gliwice, Poland) and 0.6% sulfosalicylic acid (Sigma Aldrich) in a potassium phosphate buffer with EDTA (Sigma Aldrich)) and sonicated in icy water for 3 min with vortexing every 30 s. The cells were frozen once again at −80 °C, defrosted on ice and frozen once again. Following the second freeze–thaw cycle, the cells were centrifuged at 1500× g for 5 min at 4 °C, and then, immediately, the supernatant was transferred to prechilled Eppendorf tubes. The samples were divided into two parts: one was used to measure GSH, and the other one was derivatized by an addition of 4 µL of 2-vinylpyridine (diluted 1:10 with phosphate buffer) (Sigma Aldrich, St. Louis, MO, USA) to determine the GSSG content.
GSH measurements included an addition of 20 µL of the tested sample, blank or GSH standard, 120 µL of the mixture of an equal volume of DTNB solution (2 mg dissolved in 3 mL of phosphate buffer, Sigma Aldrich) and glutathione reductase (10 U in 3 mL of phosphate buffer, Sigma Aldrich, St. Louis, MO, USA) and 30 s of incubation to allow the conversion of GSSG to GSH. The final step included the addition of 60 µL of β-NADPH (2 mg dissolved in 3 mL of phosphate buffer, Sigma Aldrich). The absorbance was read immediately at 415 nm in a microplate reader (Bio-Rad), and the measurements were taken every 30 s for 2 min (6 readings in total). The amount of GSH was calculated on the basis of the calibration curve prepared using GSH (Sigma Aldrich, St. Louis, MO, USA) at concentrations ranging from 0.040 to 2.6 nmol/mL.
The quantification of GSSG in the test samples was performed according to the same procedure as GSH. The samples treated with 2-VP were incubated for one hour at room temperature, and then, 20 µL of the tested sample was analyzed using the same reagents which were applied in the GSH measurements. The amount of GSSG was calculated on the basis of the calibration curve, prepared using GSSG (Sigma Aldrich) at concentrations of 0.040–2.6 nmol/mL. The results are presented as mean ± SD, n = 6–8 and expressed as nmol per […].

The test system of another experiment is MDA-MB-231 cells. Briefly: Cell viability WST-1 assay, MDA-MB-231. In kind it is cell-based. As to conditions: Homo sapiens, WST-1, 24 h; for viability at 3000 µM: MDA-MB-231, 24 h, 3000 µmol/L, read-out: percentage of viability of MDA-MB-231 cells. In short, it runs like this:
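Cells seeded 1 × 10^4/well, grown 24 h, then treated with compounds for 24 h at 37 °C. WST-1 reagent added for 1.5 h, absorbance at 450 nm, normalised to medium-only control (n = 8). IC50 from nonlinear log(concentration)-response fit.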
(In general: Tetrazolium assays rely on reduction of a dye to a coloured formazan, in cell work by metabolically active cells.)

`CN(C)C(=N)N=C(N)NS(=O)(=O)c1ccccc1F` [Compound 7]: in the experiment on MCF-7 cells (MCF-7, 1/2 × IC50, 24 h), the GSH came to 169.0 ± 6.0 nmol/1 mln Cells, the “GSH:GSSG Ratio” value is listed as 15.9 and the GSSG worked out at 10.6 ± 0.4 nmol/1 mln Cells. Further, in the experiment on MCF-7 cells (MCF-7, 1/4 × IC50, 24 h), the GSH was determined as 166.8 ± 12.8 nmol/1 mln Cells, the “GSH:GSSG Ratio” value is recorded as 21.2 and the GSSG is 7.9 ± 0.9 nmol/1 mln Cells. For the same compound, the IC50 in the experiment with MDA-MB-231 cells (MDA-MB-231, mean ± SD (n = 6–8), read-out: IC50 inhibition of MDA-MB-231 cells' viability) came out at 2.59 ± 0.15 mM.
For the compound `CN(C)C(=N)N=C(N)NS(=O)(=O)c1ccccc1Br` [Compound 4], in the experiment on MCF-7 cells (MCF-7, 1/2 × IC50, 24 h), the GSH is 148.5 ± 4.8 nmol/1 mln Cells, the “GSH:GSSG Ratio” value came to 24.0 and the GSSG came to 6.2 ± 0.7 nmol/1 mln Cells. Also, in the experiment on MCF-7 cells (MCF-7, 1/4 × IC50, 24 h), the GSH is given as 165.4 ± 9.6 nmol/1 mln Cells, the “GSH:GSSG Ratio” value stood at 19.2 and the GSSG is reported as 8.6 ± 0.7 nmol/1 mln Cells. For the same compound, the viability at 3000 µM in the experiment with MDA-MB-231 cells was approximately 56.4%.
On to `CN(C)C(=N)N=C(N)NS(=O)(=O)c1ccccc1Cl` [Compound 1], for which, in the experiment on MCF-7 cells (MCF-7, 1/2 × IC50, 24 h), the GSH came out at 167.5 ± 5.1 nmol/1 mln Cells, the “GSH:GSSG Ratio” value came out at 22.6 and the GSSG is given as 7.4 ± 1.8 nmol/1 mln Cells. Also, in the experiment on MCF-7 cells (MCF-7, 1/4 × IC50, 24 h), the GSH came out at 183.1 ± 8.9 nmol/1 mln Cells, the “GSH:GSSG Ratio” value came out at 20.1 and the GSSG worked out at 9.1 ± 3.9 nmol/1 mln Cells. The viability at 3000 µM in the experiment with MDA-MB-231 cells is approximately 60%.
